Measurements as given in US11015216B2, “Substituted imidazo[1,2-a]pyrazines as luciferase substrates” (PROMEGA CORPORATION, priority 2016, dated 2021).

Key:
luciferase = experiment: Additional luciferase substrate assay, compared to known analogue C-1 (Table 3); type: biochemical; conditions: relative to C-1 (=1)
Protocol: (§1) Luminescence Assay Procedure: Each compound to be screened was dissolved in DMSO (5 mM) and then further diluted to 100 uM in NANO-GLOR Luciferase Assay Buffer. Each diluted substrate was then combined in equal volumes with purified NanoLuc® Luciferase diluted into CO2 independent media+10% FBS. Initial light output for each substrate was measured in a GloMax®-Multi+ luminometer three minutes after substrate addition and then at five minute intervals as a means to determine signal half-life.
The compounds of formula (I) were also evaluated for their ability to be luciferase substrates in an additional assay.

NanoLuc® Luciferase = NanoLuc® Luciferase (Oplophorus gracilirostris, UniProt Q9GV45, A31E/A60N/A81I/F95D/I117V/K70R/L54V/L99Q/M102K/N193R/P142E/Q151K/Q38R/Q45L/V71I/Y165I); type: biochemical; conditions: ratio to coelenterazine (=1); for I (relative light units, ratio in comparison to native coelenterazine): initial light output three minutes after substrate addition; for Half-life (signal half-life, ratio in comparison to native coelenterazine): read at five minute intervals
Protocol: as §1
A subset of the synthesized coelenterazine analogues (compounds of formula (I)) were evaluated for their suitability as luciferase substrates. NANOLUC® luciferase was employed for the screening because it is a small (19 kDa), stable, and particularly bright enzyme.

Sequence of NanoLuc® Luciferase (Q9GV45 other isoform, or with tags, fused parts or gaps with the stated changes): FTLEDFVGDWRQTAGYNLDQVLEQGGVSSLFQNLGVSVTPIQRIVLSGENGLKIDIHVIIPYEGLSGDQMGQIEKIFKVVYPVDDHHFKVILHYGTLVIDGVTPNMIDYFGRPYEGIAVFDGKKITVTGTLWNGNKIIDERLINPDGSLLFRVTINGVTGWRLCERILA

Structure (SMILES) | RLU (@100 uM) (luciferase) | I (relative light units, ratio in comparison to native coelenterazine) (NanoLuc® Luciferase) | Half-life (signal half-life, ratio in comparison to native coelenterazine) (NanoLuc® Luciferase)
CCOP(=O)(OCC)c1nc2c(Cc3ccccc3)[nH]c(-c3ccccc3)cn-2c1=O [Compound 1, diethyl (8-benzyl-3-oxo-6-phenyl-3,7-dihydroimidazo[1,2-a]pyrazin-2-yl)phosphonate] | 0.00048 | – | –
O=c1c(Cc2ccc(F)cc2)nc2c(Cc3ccccc3)[nH]c(-c3ccccc3)cn1-2 [Compound 2] | 0.96 | 40 | 0.16
O=c1c(Cc2ccc(F)cc2F)nc2c(Cc3ccccc3)[nH]c(-c3ccccc3)cn1-2 [Compound 3] | 0.93 | 38.75 | 0.23
O=c1c(Cc2ccc3ccccc3c2)nc2c(Cc3ccccc3)[nH]c(-c3ccccc3)cn1-2 [Compound 4] | 0.22 | 9.166 | 0.72
CC(C)(C)c1ccc(Cc2nc3c(Cc4ccccc4)[nH]c(-c4ccccc4)cn-3c2=O)cc1 [Compound 5] | 0.093 | 3.875 | 0.43
O=c1c(Cc2cc3ccccc3s2)nc2c(Cc3ccccc3)[nH]c(-c3ccccc3)cn1-2 [Compound 6] | 0.33 | 13.75 | 0.33
O=c1c(Cc2csc3ccccc23)nc2c(Cc3ccccc3)[nH]c(-c3ccccc3)cn1-2 [Compound 7] | 0.1 | 4.166 | 0.52
COc1ccc(Cc2nc3c(Cc4ccccc4)[nH]c(-c4ccccc4)cn-3c2=O)cc1 [Compound 8] | 0.56 | 23.333 | 0.38
Nc1ccc(Cc2nc3c(Cc4ccccc4)[nH]c(-c4ccccc4)cn-3c2=O)cc1 [Compound 9] | 0.025 | 1.041 | 0.93
O=C(O)c1ccc(Cc2nc3c(Cc4ccccc4)[nH]c(-c4ccccc4)cn-3c2=O)cc1 [Compound 10] | 0.0034 | 0.142 | 1.02
Cn1nnc2cc(Cc3nc4c(Cc5ccccc5)[nH]c(-c5ccccc5)cn-4c3=O)ccc21 [Compound 11] | 0.0072 | 0.3 | 1.04
COc1cccc(Cc2nc3c(Cc4ccccc4)[nH]c(-c4ccccc4)cn-3c2=O)c1 [Compound 17] | 0.83 | – | –
COc1cc(Cc2nc3c(Cc4ccccc4)[nH]c(-c4ccccc4)cn-3c2=O)ccc1F [Compound 18] | 0.4 | – | –
COc1ccc(Cc2nc3c(Cc4ccccc4)[nH]c(-c4ccccc4)cn-3c2=O)cc1F [Compound 21] | 0.32 | – | –
CC(C)(C)OC(=O)Nc1cccc(Cc2nc3c(Cc4ccccc4)[nH]c(-c4ccccc4)cn-3c2=O)c1 [Compound 23] | 0.001 | – | –
COc1ccc(Cc2nc3c(Cc4ccccc4)[nH]c(-c4ccccc4)cn-3c2=O)s1 [Compound 24] | 0.68 | – | –
Nc1cccc(Cc2nc3c(Cc4ccccc4)[nH]c(-c4ccccc4)cn-3c2=O)c1 [Compound 25] | 0.15 | – | –
O=c1c(Cc2ccc(-c3ccccc3)cc2)nc2c(Cc3ccccc3)[nH]c(-c3ccccc3)cn1-2 [Compound 26] | 0.046 | – | –
O=c1c(CC2=Cc3ccccc3OC2)nc2c(Cc3ccccc3)[nH]c(-c3ccccc3)cn1-2 [Compound 27] | 0.1 | – | –

Structure (SMILES) | RLU (@100 uM) (luciferase) | I (relative light units, ratio in comparison to native coelenterazine) (NanoLuc® Luciferase) | Half-life (signal half-life, ratio in comparison to native coelenterazine) (NanoLuc® Luciferase)
O=c1c(Cc2cccc3c2oc2ccccc23)nc2c(Cc3ccccc3)[nH]c(-c3ccccc3)cn1-2 [Compound 28] | 0.01 | – | –
O=c1c(C/C=C/c2ccccc2)nc2c(Cc3ccccc3)[nH]c(-c3ccccc3)cn1-2 [Compound 29] | 0.13 | – | –
CC(C)(C)OC(=O)Nc1ccc(Cc2nc3c(Cc4ccccc4)[nH]c(-c4ccccc4)cn-3c2=O)cc1 [Compound 30] | 0.001 | – | –
C=CCOc1ccc(Cc2nc3c(Cc4ccccc4)[nH]c(-c4ccccc4)cn-3c2=O)cc1OC [Compound 31] | 0.054 | – | –
COc1cc(Cc2nc3c(Cc4ccccc4)[nH]c(-c4ccccc4)cn-3c2=O)ccc1O [Compound 32] | 0.052 | – | –
Cn1cnnc1Sc1ccc(Cc2nc3c(Cc4ccccc4)[nH]c(-c4ccccc4)cn-3c2=O)o1 [Compound 33] | 0.017 | – | –
O=c1c(Cc2ccc(-c3ccccn3)s2)nc2c(Cc3ccccc3)[nH]c(-c3ccccc3)cn1-2 [Compound 34] | 0.02 | – | –
CCCCCCCCCCCCc1nc2c(Cc3ccccc3)[nH]c(-c3ccccc3)cn-2c1=O [Compound 35] | 0.0005 | – | –
O=c1c(Cc2ccncc2)nc2c(Cc3ccccc3)[nH]c(-c3ccccc3)cn1-2 [Compound 36] | 0.0017 | – | –
O=c1c(Cc2ccc(C3CCCCC3)s2)nc2c(Cc3ccccc3)[nH]c(-c3ccccc3)cn1-2 [Compound 37] | 0.05 | – | –
O=c1c(Cc2ccc(-c3cccs3)s2)nc2c(Cc3ccccc3)[nH]c(-c3ccccc3)cn1-2 [Compound 38] | 0.054 | – | –
CC(C)Cc1ccc(Cc2nc3c(Cc4ccccc4)[nH]c(-c4ccccc4)cn-3c2=O)s1 [Compound 39] | 0.29 | – | –
Cn1nc(-c2ccc(Cc3nc4c(Cc5ccccc5)[nH]c(-c5ccccc5)cn-4c3=O)s2)cc1C(F)(F)F [Compound 40] | 0.0042 | – | –
O=c1c(Cc2ccc(C(F)(F)F)o2)nc2c(Cc3ccccc3)[nH]c(-c3ccccc3)cn1-2 [Compound 41] | 0.82 | – | –
COCc1ccc(Cc2nc3c(Cc4ccccc4)[nH]c(-c4ccccc4)cn-3c2=O)o1 [Compound 42] | 0.52 | – | –
O=c1c(Cc2c(F)c(F)c(F)c(F)c2F)nc2c(Cc3ccccc3)[nH]c(-c3ccccc3)cn1-2 [Compound 43] | 0.052 | – | –
O=c1c(Cc2cc(C(F)(F)F)cc(C(F)(F)F)c2)nc2c(Cc3ccccc3)[nH]c(-c3ccccc3)cn1-2 [Compound 44] | 0.019 | – | –
Cn1nc(C(F)(F)F)c(Cc2nc3c(Cc4ccccc4)[nH]c(-c4ccccc4)cn-3c2=O)c1Cl [Compound 45] | 0.0012 | – | –
O=C(O)c1cccc(Cc2nc3c(Cc4ccccc4)[nH]c(-c4ccccc4)cn-3c2=O)c1 [Compound 47] | 0.013 | – | –

Structure (SMILES) | RLU (@100 uM) (luciferase) | I (relative light units, ratio in comparison to native coelenterazine) (NanoLuc® Luciferase) | Half-life (signal half-life, ratio in comparison to native coelenterazine) (NanoLuc® Luciferase)
NCc1cccc(Cc2nc3c(Cc4ccccc4)[nH]c(-c4ccccc4)cn-3c2=O)c1 [Compound 48] | 0.0013 | – | –
CS(=O)(=O)Nc1cccc(Cc2nc3c(Cc4ccccc4)[nH]c(-c4ccccc4)cn-3c2=O)c1 [Compound 49] | 0.002 | – | –
COCc1cc(Cc2nc3c(Cc4ccccc4)[nH]c(-c4ccccc4)cn-3c2=O)ccc1OC [Compound 50] | 0.023 | – | –
CN(C)c1cccc(Cc2nc3c(Cc4ccccc4)[nH]c(-c4ccccc4)cn-3c2=O)c1 [Compound 51] | 0.49 | – | –
COCc1ccc(Cc2nc3c(Cc4ccccc4)[nH]c(-c4ccccc4)cn-3c2=O)s1 [Compound 52] | 0.45 | – | –
COCc1cccc(Cc2nc3c(Cc4ccccc4)[nH]c(-c4ccccc4)cn-3c2=O)c1 [Compound 53] | 0.47 | – | –
O=c1c(Cc2cccc(CO)c2)nc2c(Cc3ccccc3)[nH]c(-c3ccccc3)cn1-2 [Compound 54] | 0.04 | – | –
CCCSc1ncc(Cc2nc3c(Cc4ccccc4)[nH]c(-c4ccccc4)cn-3c2=O)cn1 [Compound 56] | 0.0098 | – | –
COc1ccc(Cc2nc3c(Cc4ccccc4)[nH]c(-c4ccccc4)cn-3c2=O)cc1OC [Compound 57] | 0.063 | – | –
CSc1cccc(Cc2nc3c(Cc4ccccc4)[nH]c(-c4ccccc4)cn-3c2=O)c1 [Compound 58] | 0.47 | – | –
O=c1c(Cc2ccc3c(c2)OCO3)nc2c(Cc3ccccc3)[nH]c(-c3ccccc3)cn1-2 [Compound 59] | 0.72 | – | –
CN(C)Oc1cccc(Cc2nc3c(Cc4ccccc4)[nH]c(-c4ccccc4)cn-3c2=O)c1 [Compound 60] | 0.00038 | – | –
CCOc1cccc(Cc2nc3c(Cc4ccccc4)[nH]c(-c4ccccc4)cn-3c2=O)c1 [Compound 61] | 0.49 | – | –
COCCOc1cccc(Cc2nc3c(Cc4ccccc4)[nH]c(-c4ccccc4)cn-3c2=O)c1 [Compound 62] | 0.057 | – | –
O=c1c(Cc2cnccn2)nc2c(Cc3ccccc3)[nH]c(-c3ccccc3)cn1-2 [Compound 84] | 0.003 | – | –
Cn1c(Cc2nc3c(Cc4ccccc4)[nH]c(-c4ccccc4)cn-3c2=O)cc2sccc21 [Compound 85] | 0.038 | – | –
O=c1c(C=Cc2ccccc2)nc2c(Cc3ccccc3)[nH]c(-c3ccccc3)cn1-2 [Compound 86] | 0.0002 | – | –
O=c1c(Cc2ccco2)nc2c(Cc3ccccc3)[nH]c(-c3ccccc3)cn1-2 [Compound C-1, 8-benzyl-2-(furan-2-ylmethyl)-6-phenylimidazo[1,2-a]pyrazin-3(7H)-one, reference compound] | 1 | – | –
Oc1ccc(Cc2nc3c(Cc4ccccc4)nc(-c4ccc(O)cc4)cn3c2O)cc1 [coelenterazine, reference compound] | – | 1 | 1
